Results reported in publication PMC6752721 (Chembiochem : a European journal of chemical biology, 2019).
Where a SMILES comes first, the peptide text is derived from it. [ ]: non-standard residue; d: D form. The star is where a group is joined. Decanoyl = CCCCCCCCCC(=O)*; Orn = NCCC[C@H](N)C(=O)O; Dap = NC[C@H](N)C(=O)O; NHDecyl = CCCCCCCCCCN*

Tests used:
HeLa cells [1] = experiment: Cytosolic entry efficiency of naphthofluorescein; format: cell-based; details: 10% FBS, flow cytometry; for fold decrease in CPP activity (cellular entry efficiency) relative to peptide 4 / fold increase in CPP activity (cellular entry efficiency) relative to peptide 4: 5 μM NF-labeled peptide, 2 h
HeLa cells [2] = experiment: MTT cytotoxicity assay; format: cell-based

Structure (SMILES)	fold decrease in CPP activity (cellular entry efficiency) relative to peptide 4 (HeLa cells [1])	fold increase in CPP activity (cellular entry efficiency) relative to peptide 4 (HeLa cells [1])	also measured
CCCCCCCCCC(=O)NC[C@@H]1NC(=O)[C@H](CCC(N)=O)NC(=O)[C@H](CCCNC(=N)N)NC(=O)[C@H](CCCNC(=N)N)NC(=O)[C@H](CCCNC(=N)N)NC(=O)[C@H](C)NC1=O [compound 12] (cyclo(ARRRQ[Dap](Decanoyl)))	~ 2 fold		
CCCCCCCCCC(=O)NC[C@@H]1NC(=O)[C@H](CCC(N)=O)NC(=O)[C@H](CCCNC(=N)N)NC(=O)[C@H](CCCNC(=N)N)NC(=O)[C@H](CCCNC(=N)N)NC(=O)[C@H](CCCNC(=N)N)NC(=O)[C@H](CCCNC(=N)N)NC1=O [peptide 14]	~5 fold		
CCCCCCCCCCNC(=O)C[C@@H]1NC(=O)[C@H](CCC(N)=O)NC(=O)[C@H](CCCNC(=N)N)NC(=O)[C@H](CCCNC(=N)N)NC(=O)[C@H](CCCNC(=N)N)NC(=O)[C@H](CCCNC(=N)N)NC1=O [peptide 17] (cyclo(D(NHDecyl)RRRRQ))		~ 5 fold	reduction of cell viability (HeLa cells [2]; ≤25 μM peptide, not concentration-dependent): ~ 30%; effect on cell viability at higher concentrations (HeLa cells [2]; ≥50 μM peptide): significant loss of HeLa cell viability; fold more active than CPP12 (cellular entry efficiency) (HeLa cells [1]): 2.8 fold

Further lines, with some results ahead:

fold decrease in CPP activity (cellular entry efficiency) relative to peptide 4 (HeLa cells [1])	fold increase in CPP activity (cellular entry efficiency) relative to peptide 4 (HeLa cells [1])	Structure (SMILES)	also measured
~ 3 fold		CCCCCCCCCC(=O)NC[C@@H]1NC(=O)[C@H](CCC(N)=O)NC(=O)[C@@H](CCCNC(=N)N)NC(=O)[C@H](CCCNC(=N)N)NC(=O)[C@@H](CCCNC(=N)N)NC(=O)[C@H](CCCNC(=N)N)NC1=O [compound 9] (cyclo([Dap](Decanoyl)R[dR]R[dR]Q))	
~ 3 fold		CCCCCCCCCC(=O)NC[C@@H]1NC(=O)[C@H](CCC(N)=O)NC(=O)[C@H](CCCNC(=N)N)NC(=O)[C@@H](CCCNC(=N)N)NC(=O)[C@H](CCCNC(=N)N)NC(=O)[C@@H](CCCNC(=N)N)NC1=O [compound 10] (cyclo([Dap](Decanoyl)[dR]R[dR]RQ))	
	2 fold	CCCCCCCCCC(=O)NCCC[C@@H]1NC(=O)[C@H](CCC(N)=O)NC(=O)[C@H](CCCNC(=N)N)NC(=O)[C@H](CCCNC(=N)N)NC(=O)[C@H](CCCNC(=N)N)NC(=O)[C@H](CCCNC(=N)N)NC1=O [compound 15] (cyclo([Orn](Decanoyl)RRRRQ))	
	1.3 fold	CCCCCCCCCC(=O)NCCCC[C@@H]1NC(=O)[C@H](CCC(N)=O)NC(=O)[C@H](CCCNC(=N)N)NC(=O)[C@H](CCCNC(=N)N)NC(=O)[C@H](CCCNC(=N)N)NC(=O)[C@H](CCCNC(=N)N)NC1=O [peptide 16] (cyclo(K(Decanoyl)RRRRQ))	
